Test results as given in US12037354B2, “Cyclic pantetheine derivatives and uses thereof” (VectivBio Comet AG, priority 2018, dated 2024).

Key:
[1] = tested on: Venular Endothelial cells (HUVEC) (3C system); experiment: BioMAP 3C system, Example 825; format: cell-based, human
Experimental: The BioMAP platform (BioMAP® Diversity PLUS Panel from Eurofins) is an in vitro phenotypic profiling technology that screened the compounds of the present disclosure (hereafter indicated as test agents) in human primary cell-based systems modelling complex tissue and disease states. The BioMAP assays were performed using the Eurofin's BioMAP Technology Platform as (see references 1 to 13 in the example 824 section) to model different diseases on primary cell-based model systems. These systems consisted of either single primary cell types or co-culture cells. Adherent cell types were cultured or co-cultured in 96 or 384-well plates until confluence followed by the addition of compounds prepared in DMSO at a final concentration of ≤0.1%. […]
Following the general procedure as described in Example 824, Venular Endothelial cells (HUVEC) (3C system) were treated with IL-1β, TNFα, IFNγ for 24 h to model Th1 driven cardiovascular and chronic inflammation diseases in the presence or absence of the compounds. Biomarker read out were; Tissue Factor, ICAM-1, E-selectin, uPAR (CD87), IL-8, […], HLA-DR, proliferation and SRB (Sulfo-rhodamine i.e. staining for protein content).

[2] = tested on: Keratinocytes co-cultured with dermal fibroblast (KF3CT system); experiment: BioMAP KF3CT system, Example 834; format: cell-based, human
Experimental: (§1) The BioMAP platform (BioMAP® Diversity PLUS Panel from Eurofins) is an in vitro phenotypic profiling technology that screened the compounds of the present disclosure (hereafter indicated as test agents) in human primary cell-based systems modelling complex tissue and disease states. The BioMAP assays were performed using the Eurofin's BioMAP Technology Platform as (see references 1 to 13 in the example 824 section) to model different diseases on primary cell-based model systems. These systems consisted of either single primary cell types or co-culture cells. Adherent cell types were cultured or co-cultured in 96 or 384-well plates until confluence followed by the addition of compounds prepared in DMSO at a final concentration of ≤0.1%. In each cell-based system, primary cells from heathy donors (2-6 donors) were pooled and treated with compounds at 1 and 10 μM dose 1 h prior to stimulation and remain in culture as indicated in
(§2) Example 825, Example 826, Example 827, Example 828, Example 829, Example 830, Example 831, Example 832, Example 833, Example 834, Example 835, Example 836 and Example 837. For on the BioMAP® Diversity PLUS® Panel, please see the following references, which are incorporate herein.
Following the general procedure as described in Example 824, Keratinocytes were co-cultured with dermal fibroblast (KF3CT system) and treated with […], TNFα, IFNγ and TGFβ for 24 h in the presence or absence of the compounds to model psoriasis, dermatitis and skin biology. Biomarkers read out were; MCP-1, ICAM-1, IP-10, IL-8, MIG, IL-1α, MMP-9, PAI-1, SRB, TIMP-2, uPA.

[3] = tested on: Dermal fibroblasts (HDF3CGF system); experiment: BioMAP HDF3CGF system, Example 833; format: cell-based, human; settings: 1 uM
Experimental: as §1, §2
Following the general procedure as described in Example 824, Dermal fibroblasts (HDF3CGF system) were treated with IL-1β, TNFα and IFNγ, EGF, bFGF and PDGF-BB for 24 h in the presence or absence of the compounds to model fibrosis and chronic inflammation. Biomarkers read out were; MCP-1, VCAM-1, ICAM-1, Collagen-I, Collagen-III, IP-10, I-TAC, IL-8, MIG, EGFR, M-CSF, MMP-1, PAI-1, SRB, TIMP-1, TIMP-2 and proliferation was measured for 72 h.

[4] = tested on: Peripheral blood mononuclear cells co-cultured with B-cells (BT system); experiment: BioMAP BT system, Example 829; format: cell-based, human; settings: BT system; 10 uM
Experimental: as §1, §2
Following the general procedure as described in Example 824, Peripheral blood mononuclear cells were co-cultured with B-cells (BT system) were treated with either α-IgM and TCR ligands for 72 h in the presence or absence of the compounds to model asthma, allergy, oncology and autoimmunity. Biomarkers read out were; B-cell proliferation, PBMC cytotoxicity, secreted IgG, sIL-17A, sIL-17F, sIL-2, sIL-6 and s-TNFα.

[5] = tested on: Coronary artery smooth muscle cells (CASM3C system); experiment: BioMAP CASM3C system, Example 832; format: cell-based, human
Experimental: as §1, §2
Following the general procedure as described in Example 824, Coronary artery smooth muscle cells (CASM3C system) were treated with IL-1β, TNFα and IFNγ for 24 h in the presence or absence of the compounds to model cardiovascular inflammation and restenosis. Biomarker reads out were; MCP-1, VCAM-1, Throbomodulin, Tissue factor, uPAR, IL-8, MIG, HLA-DR, IL-6, LDLR, M-CSF, PAI-1, Proliferation, SAA and SRB

[6] = tested on: Peripheral blood mononuclear cells co-cultured with venular endothelial cells (HUVEC) (LPS system); experiment: BioMAP LPS system, Example 827; format: cell-based, human
Experimental: as §1, §2
Following the general procedure as described in Example 824, Peripheral blood mononuclear cells co-cultured with venular endothelial cells (HUVEC) (LPS system) were stimulated with LPS for 24 h in the presence or absence of compounds, to model cardiovascular disease and chronic inflammation. Biomarkers read out were; MCP-1, VCAM-1, Thrombomodulin, Tissue Factor, CD40, E-selectin, CD69, IL-8, IL-1α, M-CSF, sPGE2, SRB and TNFα.

[7] = tested on: Peripheral blood mononuclear cells co-cultured with venular endothelial cells (Sag system); experiment: BioMAP Sag system, Example 828; format: cell-based, human; settings: Sag system, 1 uM
Experimental: as §1, §2
Following the general procedure as described in Example 824, Peripheral blood mononuclear cells were co-cultured with venular endothelial cells and treated with soluble antigen (T-cell ligands) (Sag system) in the presence or absence of compounds to model autoimmune and chronic inflammation. Biomarkers read out were; MCP-1, CD38, CD40, E-selectin, CD69, IL-8, MIG, PBMC cytotoxicity, Proliferation and SRB.

[8] = tested on: Bronchial epithelial cells co-cultured with dermal fibroblast (BF4T system); experiment: BioMAP BF4T system, Example 830; format: cell-based, human; settings: 10 uM
Experimental: as §1, §2
Following the general procedure as described in Example 824, Bronchial epithelial cells were co-cultured with dermal fibroblast (BF4T system) and were treated with TNFα and IL-4 for 24 h in the presence or absence of the compounds to model asthma, allergy, fibrosis, lung inflammation. Biomarkers read out were; MCP-1, Eotaxin-3, VCAM-1, ICAM-1, CD90, IL-8, IL-1α, keratin 8/18, MMP-1, MMP-3, MMP-9, PAI-1, SRB, tPA, uPA.

[9] = tested on: Venular Endothelial cells (HUVEC) (4H system); experiment: BioMAP 4H system, Example 826; format: cell-based, human
Experimental: as §1, §2
Following the general procedure as described in Example 824, Venular Endothelial cells (HUVEC) (4H system) were treated with IL-4 and histamine for 24 h to model Th2 driven allergy and autoimmunity in the presence or absence of compounds. Biomarkers read out were; MCP-1, Eotaxin-3. VCAM-1, P-selectin, uPAR (CD87), SRB and VEGFRII.

[10] = tested on: Venular endothelial cells co-cultured with macrophages (Mphg system); experiment: BioMAP Mphg system, Example 836; format: cell-based, human
Experimental: as §1, §2
Following the general procedure as described in Example 824, Venular endothelial cells co-cultured with macrophages (Mphg system) and treated with TLR2 ligand for 24 h in the presence or absence of the compounds to mimic cardiovascular inflammation, restenosis and chronic inflammation. Biomarkers read out were; MCP-1, MIP-1α, VCAM-1, CD40, E-selectin, CD69, IL-8, IL-1α, M-CSF, sIL-10 and SRB.

HepG2 cells = experiment: Glucose uptake Glo Assay, Example 821; format: cell-based; settings: for activation at 10 µM: Homo sapiens, 20 min, read-out: % increase in Glucose Uptake
Experimental: The effect of compounds from the present disclosure on glucose uptake was determined in HepG2 cells (ATCC, HB-8065) using the glucose uptake Glo Assay Kit (Promega, 11343 according to manufacturer instructions. HepG2 cells were cultured in complete DMEM-glucose media (Gibco) supplemented with 10% FBS (37° C. incubator with 5% CO2) and seeded in 96-well plates at 30,000 cells/well. After removing the complete media, 100 μL/well of serum-free, high-glucose DMEM media were added to the wells and incubated overnight (37° C. incubator with 5% CO2). Media was then replaced with 100 μl/well DPBS containing 0.6°/o BSA and starved for 1 hour. Next, DPBS was removed and 45 μl/well of insulin (100 nM) or compounds (10 μM-50 μM) were added to the wells and incubated for 10 minutes (37° C. incubator with 5% CO2). Insulin and compounds were prepared in DPBS with 0.6% BSA with a final DMSO concentration of 0.1%. Next, 5 μl of 2DG (10 mM) in DPBS were added per well and allowed to incubate for 20 minutes followed by addition of 25 μl stop buffer. 37.5 μl of the mixture were then transferred to a new plate and 12.5 μl of Neutralization buffer added to the wells. After, 50 μl of 2DG6P detection Reagent were added and incubated for 0.5-1 hour at room temperature. Luminescence was measured with 0.3-1 second integration on a luminometer.

## COC(=O)CCC(=O)CC(=O)SCCNC(=O)CCNC(=O)[C@@H]1OP(=O)(O)OCC1(C)C [Compound 6]
[1]; 3C system, 1 uM
  % decrease in IL-8: ≥10%
[1]; 3C system, 10 uM
  % increase in Proliferation (HUVEC): ≥20%
[1]; concentration tested 10 uM
  % increase in Proliferation (HUVEC): ≥20%
[1]; procedure of Example 825, concentration tested 1 uM
  % decrease in IL-8: ≥10%
[2]; 10 uM (Example 927)
  % decrease in MCP-1: ≥10%
[2]; 10 uM (Example 928)
  % decrease in MCP-1: ≥10%
[3]
  % decrease in TIMP-1: ≥10%
  % increase in 72 Hour Proliferation: ≥10%
[4]
  % decrease in sTNFα: ≥10%
[5]; 1 uM
  % decrease in HLA-DR: ≥10%
  % decrease in M-CSF: ≥10%
  % decrease in VCAM-1: ≥10%
[5]; 10 uM
  % decrease in Thrombomodulin: ≥20%
[6]; Example 988, concentration tested 1 uM
  % decrease in M-CSF: ≥10%
[6]; LPS system, 1 uM
  % decrease in IL-8: ≥10%
  % decrease in M-CSF: ≥10%
  % decrease in Tissue Factor: ≥10%
  % decrease in sTNFα: ≥20%
[6]; concentration tested 1 uM
  % decrease in Tissue Factor: ≥10%
  % decrease in sTNFα: ≥20%
[6]; procedure of Example 827, concentration tested 1 uM
  % decrease in IL-8: ≥10%
[7]
  % increase in MCP-1: ≥10%
[8]
  % increase in VCAM-1: ≥10%
[9]; 4H system, 1 uM
  % decrease in MCP-1: ≥10%
  % decrease in VEGFRII: ≥10%
[9]; concentration tested 1 uM
  % decrease in MCP-1: ≥10%
  % decrease in VEGFRII: ≥10%
[10]; procedure of Example 836, 1 uM
  % decrease in α-SMA: ≥10%
[10]; procedure of Example 836, 10 uM
  % increase in MMP-1: ≥10%

## CCOC(=O)CCC(=O)SCCNC(=O)CCNC(=O)[C@@H]1OP(=O)(N[C@@H](C)C(=O)OCC)OCC1(C)C (some centres unmarked) [Compound 206]
[4]
  % increase in sIL-6: ≥20%

## C/C=C/C(=O)CC(=O)SCCNC(=O)CCNC(=O)[C@@H]1OP(=O)(OCc2ccccc2)OCC1(C)C (some centres unmarked) [Compound 867]
HepG2 cells
  activation at 10 µM: ≥ 20%
HepG2 cells; concentration tested 10 uM
  % increase in Glucose Uptake: ≥20%

## CC1(C)OCC(C)(C)[C@H](C(=O)NCCC(=O)NCCSC(=O)C(=O)O)O1 [Compound 868]
HepG2 cells; 10 uM (Example 973)
  % increase in Glucose Uptake: ≥30%
HepG2 cells
  activation at 10 µM: ≥ 30%

## CC1(C)COP(=O)(O)O[C@H]1C(=O)NCCC(=O)NCCS [Compound 869]
HepG2 cells
  activation at 10 µM: ≥ 10%
HepG2 cells; concentration tested 10 uM
  % increase in Glucose Uptake: ≥10%

## CC1(C)OCC(C)(C)[C@H](C(=O)NCCC(=O)NCCSSCCNC(=O)CCNC(=O)[C@@H]2OC(C)(C)OCC2(C)C)O1 [Compound 870]
HepG2 cells
  activation at 10 µM: ≥ 30%
HepG2 cells; concentration tested 10 uM
  % increase in Glucose Uptake: ≥30%
